Literature values as cited in publication PMC3954986 (Chemmedchem, 2013).

Test system: PLpro
Details: cited from earlier work

| Compound | IC50 |
| --- | --- |
| Sc1ncnc2nc[nH]c12 [Inhibitor 6MP, 6‐mercaptopurine] | 5 to 20 µM |
| Nc1nc2nc[nH]c2c(=S)[nH]1 [Inhibitor 6TG, 6‐thioguanine] | 5 to 20 µM |
